# Laboratory results: paper PMC6920857, “Novel Series of Methyl 3-(Substituted Benzoyl)-7-Substituted-2-Phenylindolizine-1-Carboxylates as Promising Anti-Inflammatory Agents: Molecular Modeling Studies” (Biomolecules, 2019)
# Legend:
# [1] = target: T1, human recombinant COX-2 enzyme (Homo sapiens, UniProt P35354); assay: In vitro COX-2 inhibition assay
# T1 sequence (P35354 18-604): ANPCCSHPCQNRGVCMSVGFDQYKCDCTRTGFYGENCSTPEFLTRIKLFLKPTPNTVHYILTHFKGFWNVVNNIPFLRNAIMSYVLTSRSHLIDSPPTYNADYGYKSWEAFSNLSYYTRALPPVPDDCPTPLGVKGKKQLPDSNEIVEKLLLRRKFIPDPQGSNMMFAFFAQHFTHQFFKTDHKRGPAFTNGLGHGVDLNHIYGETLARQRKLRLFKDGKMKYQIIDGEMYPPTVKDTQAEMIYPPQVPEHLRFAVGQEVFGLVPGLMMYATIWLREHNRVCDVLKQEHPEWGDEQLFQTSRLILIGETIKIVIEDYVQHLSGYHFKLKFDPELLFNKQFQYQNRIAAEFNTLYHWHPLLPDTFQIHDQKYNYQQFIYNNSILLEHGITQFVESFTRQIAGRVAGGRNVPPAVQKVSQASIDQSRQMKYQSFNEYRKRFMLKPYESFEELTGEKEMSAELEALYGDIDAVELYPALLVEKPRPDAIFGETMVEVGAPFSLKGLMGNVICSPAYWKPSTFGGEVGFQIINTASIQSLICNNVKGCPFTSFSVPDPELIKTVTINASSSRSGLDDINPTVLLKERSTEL
Structure (SMILES),IC50 [1] [µM],melting point [°C]
"COC(=O)c1c(-c2ccccc2)c(C(=O)c2ccc(F)cc2)n2ccc(C)cc12 [Compound 4b, Methyl 3-(4-Fluorobenzoyl)-7-Methyl-2-Phenylindolizine-1-Carboxylate]",27.08 ± 0.03,167 to 168
"COC(=O)c1c(-c2ccccc2)c(C(=O)c2ccc(Cl)cc2)n2ccc(C)cc12 [Compound 4c, Methyl 3-(4-Chlorobenzoyl)-7-Methyl-2-Phenylindolizine-1-Carboxylate]",38.11 ± 0.03,154 to 155
"COC(=O)c1c(-c2ccccc2)c(C(=O)c2ccccc2)n2ccc(C)cc12 [Compound 4a, Methyl 3-Benzoyl-7-Methyl-2-Phenylindolizine-1-Carboxylate]",41.59 ± 0.03,173 to 174
"COC(=O)c1c(-c2ccccc2)c(C(=O)c2ccc(Br)cc2)n2ccc(C)cc12 [Compound 4d, Methyl 3-(4-Bromobenzoyl)-7-Methyl-2-Phenylindolizine-1-Carboxylate]",37.66 ± 0.03,137 to 138

# Other lines, results leading:
IC50 [1] [µM],melting point [°C],Structure (SMILES)
6.71 ± 0.03,235 to 236,"COC(=O)c1c(-c2ccccc2)c(C(=O)c2ccc(C#N)cc2)n2ccc(C#N)cc12 [Compound 4e, Methyl 7-Cyano-3-(4-Cyanobenzoyl)-2-Phenylindolizine-1-Carboxylate]"
9.62 ± 0.03,166 to 167,"COC(=O)c1c(-c2ccccc2)c(C(=O)c2ccc(OC)cc2)n2ccc(C#N)cc12 [Compound 4g, Methyl 7-Cyano-3-(4-Methoxybenzoyl)-2-Phenylindolizine-1-Carboxylate]"
13.55 ± 0.03,208 to 209,"COC(=O)c1c(-c2ccccc2)c(C(=O)c2ccc(Br)cc2)n2ccc(C#N)cc12 [Compound 4f, Methyl 3-(4-Bromobenzoyl)-7-Cyano-2-Phenylindolizine-1-Carboxylate]"
